The values below come from patent publication US20180064654A1, “Sheet Packs And Methods For Treating Skin” (ELC Management LLC, priority 2015, published 2018).

In series [1] the test system is PER1 gene expression in skin cells. The settings on record: "has been shown", no test described; cited from earlier work.
Series [2] relates to per1 gene expression in normal human epidermal keratinocytes (NHEK). In words: per1 promoter luciferase reporter assay in NHEK. The series is classed as cell-based. Here is the method: Perl gene expression in normal human epidermal keratinocytes (NHEK) donors was tested in control cells and cells exposed to ozone using the reporter assay. NHEK were plated at a concentration of 3×10^4 in a black walled, 96 well microtiter plate for 3 hours in EpiLife media. The cells were then transfected in supplement free media with a plasmid that contained luciferase as the reporter gene ligated upstream to a per1 promoter element. In addition, transfection was facilitated by addition of Plus and Lipfectamine reagents (Invitrogen, Carlsbad, Calif.). Transfection in supplement free media was carried out for an additional four hours. This “starves” the cells which in turn causes them to be synchronized in their circadian rhythms. After transfection, full media neat and containing ozone was added and incubated for 16 hours. Then a luciferase reagent, Glo-Bright (Promega Corporation, Madison, Wis.) was added and luminescence measures in an Lmax luminometer (Molecular Devices, Sunnyvale, Calif.).
The test was performed again, and in addition, a peptide with per1 gene activity was tested.
In both tests, NHEK were treated at the start of the test (0 hours) so that they were all synchronized with respect to their circadian rhythm, and expressing per1 at the same time. […]

The subject of series [3] is PER1 gene expression in skin cells. In words: PER1 gene expression in skin cells. It counts as cell-based.

On to `O=C(/C=C/c1ccc(O)c(O)c1)O[C@@H](C(=O)O)[C@@H](OC(=O)/C=C/c1ccc(O)c(O)c1)C(=O)O` [cichoric acid], for which, in series [1], the “activation of PER / PER1” value is “suitable activator of PER and PER1”.

As to `O=[O+][O-]` [ozone], the per1 gene expression entry in series [2] (24 hours, single treatment, compared with untreated cells (FIG. 6)) is “lesser, and about equivalent, expression of PER1”. The per1 activity result in series [2] (ozone treated NHEK at 0, 6 and 12 hours, vs untreated cells (FIG. 5)) is “decrease in per1 activity”. On to `O=C(/C=C/c1ccc(O)c(O)c1)O[C@@H](C(=O)O)[C@@H](O)C(=O)O` [caftaric acid], for which the PER1 gene expression result in series [3] is “does not increase PER1 gene expression”.
